From ChEMBL document CHEMBL3045339, “Synthesis of benzoxazoles, benzothiazoles and benzimidazoles and evaluation of their antifungal, insecticidal and herbicidal activities” (1992)
Converted amounts (≈) assume the structure as drawn.

Assays:
Assay type in all cases: functional
Bacillus subtilis = assay: Antibacterial activity against Bacillus subtilis after 48 hr
Pseudomonas aeruginosa = assay: Antibacterial activity against Pseudomonas aeruginosa after 48 hr
Escherichia coli = assay: Antibacterial activity against Escherichia coli after 48 hr
Persicaria hydropiper [1] = assay: Herbicidal activity against Persicaria hydropiper assessed as disease control at 1000 ppm treated in soil during 15 to 20 days relative to control
Eleusine indica [2] = assay: Herbicidal activity against Eleusine indica assessed as disease control at 1000 ppm treated in soil during 15 to 20 days relative to control
Echinochloa crus-galli [3] = assay: Herbicidal activity against Echinochloa crus-galli (barnyard grass) assessed as disease control at 1000 ppm treated in soil during 15 to 20 days relative to control
Fusarium fujikuroi = assay: Antifungal activity against Fusarium fujikuroi after 7 days; set-up: concentration or dose not given beside the values
Xanthomonas axonopodis = assay: Antibacterial activity against Xanthomonas axonopodis after 7 days; set-up: concentration or dose not given beside the values
[4] = system: Pseudoperonospora cubensis; assay: Antifungal activity against Pseudoperonospora cubensis after 7 days; set-up: concentration or dose not given beside the values
Botrytis cinerea = assay: Antifungal activity against Botryotinia fuckeliana after 7 days; set-up: concentration or dose not given beside the values
Pyricularia oryzae = assay: Antifungal activity against Magnaporthe oryzae after 7 days; set-up: concentration or dose not given beside the values
Mycobacterium = assay: Antibacterial activity against Mycobacterium ovicum after 48 hr
Staphylococcus aureus = assay: Antibacterial activity against Staphylococcus aureus after 48 hr
Oryza sativa = assay: Herbicidal activity against Oryza sativa assessed as disease control at 1000 ppm treated in paddy field during 15 to 20 days relative to control
Panonychus citri [5] = assay: Insecticidal activity against Panonychus citri at 500 ppm up to 21 days
Cyperus compressus = assay: Herbicidal activity against Cyperus compressus assessed as disease control at 1000 ppm treated in paddy field during 15 to 20 days relative to control
Echinochloa crus-galli [6] = assay: Herbicidal activity against Echinochloa crus-galli (barnyard grass) assessed as disease control at 1000 ppm treated in paddy field during 15 to 20 days relative to control
Chenopodium album [7] = assay: Herbicidal activity against Chenopodium album assessed as disease control at 1000 ppm treated in foliage during 15 to 20 days relative to control
Amaranthus viridis [8] = assay: Herbicidal activity against Amaranthus viridis assessed as disease control at 1000 ppm treated in foliage during 15 to 20 days relative to control
Persicaria hydropiper [9] = assay: Herbicidal activity against Persicaria hydropiper assessed as disease control at 1000 ppm treated in foliage during 15 to 20 days relative to control
Eleusine indica [10] = assay: Herbicidal activity against Eleusine indica assessed as disease control at 1000 ppm treated in foliage during 15 to 20 days relative to control
Echinochloa crus-galli [11] = assay: Herbicidal activity against Echinochloa crus-galli (barnyard grass) assessed as disease control at 1000 ppm treated in foliage during 15 to 20 days relative to control
Amaranthus viridis [12] = assay: Herbicidal activity against Amaranthus viridis assessed as disease control at 1000 ppm treated in soil during 15 to 20 days relative to control
Chenopodium album [13] = assay: Herbicidal activity against Chenopodium album assessed as disease control at 1000 ppm treated in soil during 15 to 20 days relative to control
Panonychus citri [14] = assay: Insecticidal activity against Panonychus citri at 200 ppm up to 21 days

Row | Compound | MIC (Bacillus subtilis) | MIC (Pseudomonas aeruginosa) | Activity (Persicaria hydropiper [1]) | Activity (Eleusine indica [2]) | Activity (Echinochloa crus-galli [3]) | Activity (Fusarium fujikuroi) | Activity (Xanthomonas axonopodis) | Activity [4] | Activity (Botrytis cinerea) | Activity (Pyricularia oryzae) | Activity (Oryza sativa) | Activity (Cyperus compressus) | Activity (Echinochloa crus-galli [6]) | Activity (Chenopodium album [7]) | Activity (Amaranthus viridis [8]) | Activity (Persicaria hydropiper [9]) | Activity (Eleusine indica [10]) | Activity (Echinochloa crus-galli [11]) | Activity (Amaranthus viridis [12]) | Activity (Chenopodium album [13]) | further results
1 | c1ccc2[nH]c(-c3ccnc4ccccc34)nc2c1 | 100 µg/mL (≈ 408 µM) | 100 µg/mL (≈ 408 µM) | – | – | – | – | – | – | – | – | – | – | – | – | – | – | – | – | – | – | MIC (Escherichia coli): 100 µg/mL (≈ 408 µM)
2 | Clc1ccc2nc(-c3ccccn3)[nH]c2c1 | 50 µg/mL (≈ 218 µM) | 100 µg/mL (≈ 435 µM) | <39% | <39% | <39% | <39% | 60% | >80% | >80% | 60% | <39% | <39% | <39% | <39% | <39% | <39% | <39% | <39% | <39% | <39% | MIC (Mycobacterium): 50 µg/mL (≈ 218 µM); MIC (Escherichia coli): 50 µg/mL (≈ 218 µM); MIC (Staphylococcus aureus): 50 µg/mL (≈ 218 µM); Activity (Panonychus citri [5]): 32.5%
3 | O=[N+]([O-])c1ccc2[nH]c(-c3ccccn3)nc2c1 | 50 µg/mL (≈ 208 µM) | 100 µg/mL (≈ 416 µM) | <39% | <39% | <39% | <39% | 40% | <39% | <39% | 60% | <39% | <39% | <39% | <39% | <39% | <39% | <39% | <39% | <39% | <39% | MIC (Mycobacterium): 50 µg/mL (≈ 208 µM); MIC (Escherichia coli): 10 µg/mL (≈ 41.6 µM); MIC (Staphylococcus aureus): 50 µg/mL (≈ 208 µM)
4 | Clc1cccc2nc(-c3ccccn3)[nH]c12 | – | – | <39% | <39% | <39% | <39% | 60% | <39% | >80% | >80% | <39% | <39% | <39% | <39% | <39% | <39% | <39% | <39% | <39% | <39% | Activity (Panonychus citri [5]): 91.5%
5 | OC(c1ccc(Cl)cc1)(c1ccc(Cl)cc1)C(Cl)(Cl)Cl [DICOFOL] | – | – | – | – | – | – | – | – | – | – | – | – | – | – | – | – | – | – | – | – | Activity (Panonychus citri [14]): 98.3%
6 | FC(F)(F)c1ccc2sc(-c3ccccn3)nc2c1 | – | – | <39% | <39% | <39% | <39% | <39% | <39% | <39% | <39% | <39% | >80% | >80% | >80% | >80% | <39% | <39% | <39% | 60% | <39% | Activity (Panonychus citri [5]): 81.3%
